Patent US11597708B2, “Inhibitors of heat shock factors and uses thereof” (HSF Pharmaceuticals SA, priority 2016, dated 2023)
Like-named read-outs stand apart in the source and are kept apart here.

Molecular target: T1, HSF1 (Homo sapiens, UniProt Q00613)
T1 construct: functionally linked to an hsp70b promoter and therefore controlled by endogenous HSF1; endogenous in cells; host or cells: HeLa cells / HeLa-derived cell line Z74
T1 sequence (Q00613 1-529): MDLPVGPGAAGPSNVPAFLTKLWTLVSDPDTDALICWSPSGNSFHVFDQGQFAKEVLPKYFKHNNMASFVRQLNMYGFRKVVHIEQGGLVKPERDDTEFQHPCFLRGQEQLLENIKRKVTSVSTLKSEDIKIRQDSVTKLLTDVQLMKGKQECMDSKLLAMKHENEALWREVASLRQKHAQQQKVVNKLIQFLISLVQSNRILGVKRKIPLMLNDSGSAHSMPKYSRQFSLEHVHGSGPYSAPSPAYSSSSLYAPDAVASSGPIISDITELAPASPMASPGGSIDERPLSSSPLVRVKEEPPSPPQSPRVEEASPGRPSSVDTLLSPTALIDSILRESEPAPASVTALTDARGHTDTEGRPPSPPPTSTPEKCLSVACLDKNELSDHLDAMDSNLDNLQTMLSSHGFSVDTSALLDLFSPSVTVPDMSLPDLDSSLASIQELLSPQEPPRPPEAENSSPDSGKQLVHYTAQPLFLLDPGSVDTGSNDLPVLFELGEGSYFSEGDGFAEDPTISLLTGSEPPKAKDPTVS
Assay: Z74 cell-based reporter assay: heat-induced RLuc expression controlled by endogenous HSF1
Details: for IC50: inhibition of HSF1 activity [RLuc]; for inhibition at 12.5 µM: 12.5 μM IHSF, negative values marked *: compound enhanced rLuc activity, read-out: Inhibition of HSF1 activity at 12.5 μM IHSF [RLuc] (%)
How it was run: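 HeLa-derived Z74 cells carry LexA-HSF1-driven firefly luciferase and hsp70b promoter-driven Renilla luciferase, the latter under endogenous HSF1. Cells were treated with compound at 12.5 or 25 μM for 2 h, heated to 43.0 °C for 30 min, then kept 6 h at 37 °C. Both luciferases were read by dual-luciferase luminescence.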

[1] = Z74 cells, 25 μM IHSF, 2 h exposure, 43° C. 30 min, 6 h at 37° C., read-out: Inhibition of HSF1 activity at 25 μM IHSF [RLuc] (%)

Structure (SMILES) | IC50 (Z74 cells) [µM] | inhibition at 12.5 µM (Z74 cells) [%] | inhibition at 25 µM [1] [%] | inhibition at 25 µM (IHSF 001 tested at 25 μM, Experiment No. 1, read-out: Inhibition of HSF1 activity [RLuc] (%)) [%] | inhibition at 25 µM (IHSF 001 tested at 25 μM, Experiment No. 2, read-out: Inhibition of HSF1 activity [RLuc] (%)) [%] | inhibition at 25 µM (IHSF 001 tested at 25 μM, Experiment No. 3, read-out: Inhibition of HSF1 activity [RLuc] (%)) [%] | inhibition at 25 µM (IHSF 001 tested at 25 μM, Experiment No. 4, read-out: Inhibition of HSF1 activity [RLuc] (%)) [%] | inhibition at 25 µM (IHSF 001 tested at 25 μM, Experiment No. 5, read-out: Inhibition of HSF1 activity [RLuc] (%)) [%] | inhibition at 25 µM (IHSF 001 tested at 25 μM, Experiment No. 6, read-out: Inhibition of HSF1 activity [RLuc] (%)) [%] | inhibition at 25 µM (IHSF 001 tested at 25 μM, Experiment No. 7, read-out: Inhibition of HSF1 activity [RLuc] (%)) [%] | inhibition at 25 µM (IHSF 001 tested at 25 μM, Experiment No. 8, read-out: Inhibition of HSF1 activity [RLuc] (%)) [%] | inhibition at 25 µM (IHSF 001 tested at 25 μM, Experiment No. 9, read-out: Inhibition of HSF1 activity [RLuc] (%)) [%] | activity in the Z74-based screening assay (most potent IHSF)
CCOC(=O)/C=C/C(=O)Nc1ncc(-c2cccnc2)s1 [IHSF 058, (E)-3-(5-Pyridm-3-yl-thiazol-2-ylcarbamoyl)-acrylic acid ethyl ester] | 4.8 | 79 | 97 | – | – | – | – | – | – | – | – | – | –
CCOC(=O)/C=C/C(=O)Nc1nccs1 [IHSF 001, (E)-ethyl 4-oxo-4-(thiazol-2-ylamino)but-2-enoate] | 17.8 | 37 | 64 | 66 | 69 | 69 | 67 | 68 | 63 | 56 | 51 | 45 | –
CN(C(=O)/C=C/C1=NCCCO1)c1ncc(-c2cccnc2)s1 [IHSF 115, (E)-3-(5,6-Dihydro-4H-[1,3]oxazin-2-yl)-N-methyl-N-(5-pyridin-3-yl-thiazol-2-yl)-acrylamide] | 0.7 | 99 | 100 | – | – | – | – | – | – | – | – | – | substantial activity in the high nanomolar range
